Tests used:
[1] = biological target: T1, human Cot catalytic domain (30-397 amino acids) (Homo sapiens, UniProt P41279); test: High Throughput Cot Biochemical Assay (KinEASE TR-FRET); conditions: Cot KinEASE TR-FRET (HTRF) biochemical assay, 400 μM ATP; read-out: IC50 HTRF
T1 construct: Purified recombinant human Cot catalytic domain (30-397 amino acids) was purchased from Cama Biosciences; purchased Cama Biosciences (so in the source)
How it was run: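 TR-FRET (KinEASE) read-out: Eu-labelled phospho-specific antibody binds XL665-tagged STK3 peptide (1 μM) phosphorylated by 5 nM human Cot kinase domain (residues 30-397). Reaction at 400 μM ATP, pH 7.0 MOPS buffer with 10 mM MgOAc, 1 mM DTT and 0.1% DMSO.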

[2] = tested on: TNFα production in LPS-stimulated human monocytes; test: Cot Monocyte TNFα Cell Based Assay; conditions: Homo sapiens, Monocyte, TNFα in LPS-stimulated human monocytes; read-out: EC50 TNF
How it was run: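 TNFα release quantified by two-antibody TR-FRET, normalised to unstimulated (0%) and LPS-stimulated (100%) wells. Cells got a 1 h compound exposure at 37° C in 0.5% DMSO before 4 h challenge with 50 pg/ml LPS, at 5,000 cells/well.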

T1 sequence (P41279 30-397): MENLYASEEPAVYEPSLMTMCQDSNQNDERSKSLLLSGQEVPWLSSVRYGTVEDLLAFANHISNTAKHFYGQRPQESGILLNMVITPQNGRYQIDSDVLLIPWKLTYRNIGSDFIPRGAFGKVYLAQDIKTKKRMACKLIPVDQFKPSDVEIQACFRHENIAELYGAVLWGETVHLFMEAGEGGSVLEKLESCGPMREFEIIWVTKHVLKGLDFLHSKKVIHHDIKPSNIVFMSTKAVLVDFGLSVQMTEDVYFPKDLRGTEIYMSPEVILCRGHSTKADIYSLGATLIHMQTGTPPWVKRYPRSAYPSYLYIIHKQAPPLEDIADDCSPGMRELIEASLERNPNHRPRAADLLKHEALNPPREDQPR

SMILES	IC50 [1] [nM]	EC50 [2] [nM]
[2H][C@](Nc1cc(Cl)c2ncc(C#N)c(NC(CC)Cc3ccccc3)c2c1)(c1ccc(F)cc1)c1cn(C2CC2)nn1 (stereo partly drawn) [Example 175, 8-chloro-6-(((S)-(1-cyclopropyl-1H-1,2,3-triazol-4-yl)(4-fluorophenyl)methyl-d)amino)-4-((1-phenylbutan-2-yl)amino)quinoline-3-carbonitrile]	280	5920
[2H][C@](Nc1cc(Cl)c2ncc(C#N)c(NN3CCCCCC3)c2c1)(c1ccc(F)cc1)c1cn(C2CC2)nn1 [Example 177, (S)-4-(azepan-1-ylamino)-8-chloro-6-(((1-cyclopropyl-1H-1,2,3-triazol-4-yl)(4-fluorophenyl)methyl-d)amino)quinoline-3-carbonitrile]	370	2460
[2H][C@](Nc1cc(Cl)c2ncc(C#N)c(NN3CCCCC3)c2c1)(c1ccc(F)cc1)c1cn(C2CC2)nn1 [Example 178, (S)-8-chloro-6-(((1-cyclopropyl-1H-1,2,3-triazol-4-yl)(4-fluorophenyl)methyl-d)amino)-4-(piperidin-1-ylamino) quinoline-3-carbonitrile]	110	674
[2H][C@](Nc1cc(Cl)c2ncc(C#N)c(NN3CCCC3)c2c1)(c1ccc(F)cc1)c1cn(C2CC2)nn1 [Example 179, (S)-8-chloro-6-(((1-cyclopropyl-1H-1,2,3-triazol-4-yl)(4-fluorophenyl)methyl-d)amino)-4-(pyrrolidin-1-ylamino)quinoline-3-carbonitrile]	193	2310
[2H][C@](Nc1cc(Cl)c2ncc(C#N)c(NC(CC)c3cnc(F)c(F)c3)c2c1)(c1ccc(F)cc1)c1cn(C2CC2)nn1 (stereo partly drawn) [Example 180, 8-chloro-6-(((S)-(1-cyclopropyl-1H-1,2,3-triazol-4-yl)(4-fluorophenyl)methyl-d)amino)-4-((1-(5,6-difluoropyridin-3-yl)propyl)amino) quinoline-3-carbonitrile]	194	3590
[2H][C@](Nc1cc(Cl)c2ncc(C#N)c(N[C@H](COC)c3ccccc3)c2c1)(c1ccc(F)cc1)c1cn(C2CC2)nn1 [Example 181, 8-chloro-6-(((1-cyclopropyl-1H-1,2,3-triazol-4-yl)(4-fluorophenyl)methyl-d)amino)-4-(((S)-2-methoxy-1-phenylethyl)amino) quinoline-3-carbonitrile]	28	348
[2H][C@@](Nc1cc(C#N)c2ncc(C#N)c(Nc3ccc(F)c(Cl)c3)c2c1)(c1cn(C2CC2)nn1)c1ccccc1Cl [Example 182, (S)-4-((3-chloro-4-fluorophenyl)amino)-6-(((2-chlorophenyl)(1-cyclopropyl-1H-1,2,3-triazol-4-yl)methyl-d)amino) quinoline-3,8-dicarbonitrile]	4	136
[2H][C@@](Nc1cc(Cl)c2ncc(C#N)c(Nc3ccc(Cl)c(Cl)c3F)c2c1)(c1cn(C2CC2)nn1)c1ccccc1Cl [Example 183, (S)-8-chloro-6-(((2-chlorophenyl)(1-cyclopropyl-1H-1,2,3-triazol-4-yl)methyl-d)amino)-4-((3,4-dichloro-2-fluorophenyl)amino)quinoline-3-carbonitrile]	89	1410
[2H][C@](Nc1cc(Cl)c2ncc(C#N)c(N[C@@H](c3ccccc3)C3CC3)c2c1)(c1ccc(F)cc1)c1cn(C2CC2)nn1 [Example 185, 8-chloro-4-(((R)-cyclopropyl (phenyl)methyl)amino)-6-(((S)-(1-cyclopropyl-1H-1,2,3-triazol-4-yl)(4-fluorophenyl)methyl-d)amino)quinoline-3-carbonitrile]	11	199
[2H][C@](Nc1cc(Cl)c2ncc(C#N)c(NC3CCCC3(C)C)c2c1)(c1ccc(F)cc1)c1cn(C2CC2)nn1 (some centres unmarked) [Example 189]	10	157
[2H][C@](Nc1cc(Cl)c2ncc(C#N)c(NC3CCOCC3(C)C)c2c1)(c1ccc(F)cc1)c1cn(C2CC2)nn1 (stereo partly drawn) [Example 190, 8-chloro-6-(((S)-(1-cyclopropyl-1H-1,2,3-triazol-4-yl)(4-fluorophenyl)methyl-d)amino)-4-((3,3-dimethyltetrahydro-2H-pyran-4-yl)amino)quinoline-3-carbonitrile]	3	55

More lines, now with the values ahead:

IC50 [1] [nM]	EC50 [2] [nM]	SMILES
2070	9570	[2H][C@](Nc1cc(-c2cn[nH]c2)c2ncc(C#N)c(NCC(C)(C)C)c2c1)(c1ccc(F)cc1)c1cn(C2CC2)nn1 [Example 168, (S)-6-(((1-cyclopropyl-1H-1,2,3-triazol-4-yl)(4-fluorophenyl)methyl-d)amino)-4-(neopentylamino)-8-(1H-pyrazol-4-yl)quinoline-3-carbonitrile]
543	2910	[2H][C@](Nc1cc(-c2ccc(NC(C)=O)cc2)c2ncc(C#N)c(NCC(C)(C)C)c2c1)(c1ccc(F)cc1)c1cn(C2CC2)nn1 [Example 169, (S)-N-(4-(3-cyano-6-(((1-cyclopropyl-1H-1,2,3-triazol-4-yl)(4-fluorophenyl)methyl-d)amino)-4-(neopentylamino)quinolin-8-yl)phenyl)acetamide]
48	562	[2H][C@](Nc1cc(-c2cccnc2)c2ncc(C#N)c(NCC(C)(C)C)c2c1)(c1ccc(F)cc1)c1cn(C2CC2)nn1 [Example 170, (S)-6-(((1-cyclopropyl-1H-1,2,3-triazol-4-yl)(4-fluorophenyl)methyl-d)amino)-4-(neopentylamino)-8-(pyridin-3-yl)quinoline-3-carbonitrile]
9530	> 10000	[2H][C@](Nc1cc(-c2ccccc2)c2ncc(C#N)c(NCC(C)(C)C)c2c1)(c1ccc(F)cc1)c1cn(C2CC2)nn1 [Example 171, (S)-6-(((1-cyclopropyl-1H-1,2,3-triazol-4-yl)(4-fluorophenyl)methyl-d)amino)-4-(neopentylamino)-8-phenylquinoline-3-carbonitrile]
139	1640	[2H][C@](Nc1cc(OC)c2ncc(C#N)c(NCC(C)(C)C)c2c1)(c1ccc(F)cc1)c1cn(C2CC2)nn1 [Example 172, (S)-6-(((1-cyclopropyl-1H-1,2,3-triazol-4-yl)(4-fluorophenyl)methyl-d)amino)-8-methoxy-4-(neopentylamino) quinoline-3-carbonitrile]
140	1850	[2H][C@](Nc1cc(Cl)c2ncc(C#N)c(NC(C)(C)CO)c2c1)(c1ccc(F)cc1)c1cn(C2CC2)nn1 [Example 173, (S)-8-chloro-6-(((1-cyclopropyl-1H-1,2,3-triazol-4-yl)(4-fluorophenyl)methyl-d)amino)-4-((1-hydroxy-2-methylpropan-2-yl)amino)quinoline-3-carbonitrile]
837	> 10000	[2H][C@](Nc1cc(Cl)c2ncc(C#N)c(NC(C)CCO)c2c1)(c1ccc(F)cc1)c1cn(C2CC2)nn1 (some centres unmarked) [Example 174]
83	809	[2H][C@](Nc1cc(Cl)c2ncc(C#N)c(NCC3(C(F)(F)F)CC3)c2c1)(c1ccc(F)cc1)c1cn(C2CC2)nn1 [Example 176]
154	4380	[2H]C(Nc1cc(Cl)c2ncc(C#N)c(NCC(C)(C)C)c2c1)(c1ccc(F)cc1)c1nnnn1C (centres unmarked) [Example 184, 8-chloro-6-(((4-fluorophenyl)(1-methyl-1H-tetrazol-5-yl)methyl-d)amino)-4-(neopentylamino) quinoline-3-carbonitrile]
> 10000	> 10000	[2H][C@](Nc1cc(Cl)c2ncc(C#N)c(N[C@@H](CO)C(C)(C)C)c2c1)(c1ccc(F)cc1)c1cn(C2CC2)nn1 [Example 186, 8-chloro-6-(((S)-(1-cyclopropyl-1H-1,2,3-triazol-4-yl)(4-fluorophenyl)methyl-d)amino)-4-(((R)-1-hydroxy-3,3-dimethylbutan-2-yl)amino)quinoline-3-carbonitrile]
85	793	[2H][C@](Nc1cc(Cl)c2ncc(C#N)c(N[C@H](CO)C(C)(C)C)c2c1)(c1ccc(F)cc1)c1cn(C2CC2)nn1 [Example 187, 8-chloro-6-(((S)-(1-cyclopropyl-1H-1,2,3-triazol-4-yl)(4-fluorophenyl)methyl-d)amino)-4-(((S)-1-hydroxy-3,3-dimethylbutan-2-yl)amino)quinoline-3-carbonitrile]
16	203	[2H][C@](Nc1cc(Cl)c2ncc(C#N)c(N[C@H](C)C(C)(C)C)c2c1)(c1ccc(F)cc1)c1cn(C2CC2)nn1 [Example 188, 8-chloro-6-(((S)-(1-cyclopropyl-1H-1,2,3-triazol-4-yl)(4-fluorophenyl)methyl-d)amino)-4-(((R)-3,3-dimethylbutan-2-yl)amino)quinoline-3-carbonitrile]
56	487	[2H][C@](Nc1cc(Cl)c2ncc(C#N)c(NCC(Cl)(Cl)Cl)c2c1)(c1ccc(F)cc1)c1cn(C2CC2)nn1 [Example 191, (S)-8-chloro-6-(((1-cyclopropyl-1H-1,2,3-triazol-4-yl)(4-fluorophenyl)methyl-d)amino)-4-((2,2,2-trichloroethyl)amino) quinoline-3-carbonitrile]
3	107	[2H][C@](Nc1cc(Cl)c2ncc(C#N)c(NCC(C)(C)CCl)c2c1)(c1ccc(F)cc1)c1cn(C2CC2)nn1 [Example 192, (S)-8-chloro-4-((3-chloro-2,2-dimethylpropyl)amino)-6-(((1-cyclopropyl-1H-1,2,3-triazol-4-yl)(4-fluorophenyl)methyl-d)amino)quinoline-3-carbonitrile]

From patent US10316017B2, “COT modulators and methods of use thereof” (Gilead Sciences, Inc., priority 2015, dated 2019)
